Publication PMC9177545, “3-oxo-C12:2-HSL, quorum sensing molecule from human intestinal microbiota, inhibits pro-inflammatory pathways in immune cells via bitter taste receptors” (Scientific Reports, 2022)

Columns and labels:
RAW264.7 cells = assay: Intracellular calcium assay (Fluo-4) in RAW264.7 cells; type: cell-based, murine; settings: 1000 µM
Procedure: RAW264.7 cells were seeded in black, clear-bottom 96-well plates (Costar) at 20,000 cells per well. The next day, release of intracellular Ca^2+ was measured using Fluo-4 (Fluo-4 Direct Calcium Assay; Life Technologies) according to the manufacturer’s instructions. Medium was discarded and 100 µL of 1 X Fluo-4 dye was incubated at 37 °C for 1 h in 5% CO2, protected from light. Then, basal fluorescence was measured using a fluorospectrometer (FLUOstar Omega; BMG Labtech), excitation at 485 nm and emission at 520 nm. Molecules of interest were then added with an electronic pipette; thapsigargin (10 µM, Sigma) as a positive control, 3-oxo-C12:2-HSL (1000 µM) or DMSO 0.5%; with 8 replicates per conditions for every experiment. The fluorescence signal was immediately measured every 80 s for 2 h. Results are expressed as a ratio of the fluorescence x times over the basal fluorescence (F/F0).

STAT3 = STAT3 phosphorylation by Wes capillary electrophoresis in activated RAW264.7 macrophages; type: cell-based, murine; settings: 50 µM, 2 h, LPS and IFNγ stimulated
Procedure: In RAW264.7 cells, inflammation was triggered with LPS (10 ng/mL, Sigma) and IFNγ (10 U/mL, R&Dsystems) for 2 h or 6 h, depending on the experiments. PBMC were exposed to LPS (10 ng/mL) and AHL for 24 h. For TAS2R38 inhibition experiments, cells were exposed to TAS2R38 allosteric inhibitor probenecid (1 mM, Sigma) for one hour before adding AHLs and the inflammatory cocktail, without changing the media.
RAW264.7 cells were scraped in lysis buffer (20 mM Tris- HCl, pH 7.4, 5 mM EDTA, 0.15 M NaCl, 1% Triton X-100, 0.5% sodium deoxycholate) supplemented with protease inhibitor cocktail (Complete Mini; Roche, Boulogne-Billancourt, France) and phosphatase inhibitor cocktail (PhosSTOP, Sigma-Aldrich). Protein concentrations were determined using the BC Assay (Uptima/Interchim). Wes™ analyses (capillary electrophoresis system; ProteinSimple, San Jose, CA) were performed according to the manufacturer’s recommendations, and adequate protein concentrations and antibody dilutions were determined in preliminary assays to allow optimal quantitative conditions. […] Data were analysed using Compass for SW3.1 software (ProteinSimple).

Question: Which results are given for 3-oxo-C12:2-HSL?
Answer: slope of the calcium response curve vs control condition (RAW264.7 cells; Fluo-4 F/F0, two hours): significantly higher; intracellular calcium level compared with the control (RAW264.7 cells; basal state, Fluo-4, two hours, control DMSO 0.5%): increase; phosphorylation level of STAT3 vs activated cells without AHL (STAT3): not significantly altered
